Experimental data reported in patent US20250064890A1, “PROTEIN COMPOSITIONS FOR THE TREATMENT OF INFLAMMATORY DISEASES” (Unichem Laboratories Limited, priority 2021, published 2025).
Like-named read-outs stand apart in the source and are kept apart here.

Tests used:
Type in all cases: cell-based, human
NF-kB = assay: Multiplex analysis, chemotherapy (5-FU), TR146 cell lysates
Protocol: (§1) Oral buccal mucosal cells (TR146) cells were incubated overnight at 37° C. in 5% CO2 incubator. […] The cells were then stimulated with 5-FU (10 mM) for another 24h for chemotherapy and with gamma radiation (3.5 kGy) using Cobalt 60 for radiotherapy. After 24 h, cell culture supernatants were collected from each well and stored at −20° C. till multiplex analysis. For NF-kB estimations, cell lysates were prepared. Levels of biomarkers were estimated using Magpix® multiplex machine. The cells treated with Amifostine (along with 5-FU or radiation) were considered as positive control (PC). Untreated cells (5-FU or radiation alone treated) were used as negative control (NC).
(§2) The percent modulation in each sample was determined as follows:
(§3) [{Concentration of biomarkers (pg/ml) in Control cells (5-FU or radiation alone treated)−Concentration of biomarkers (pg/ml) in SEQ ID NO: 2+5-FU or radiation treated cells)}/Concentration of biomarkers (pg/ml) in Control cells (5-FU or radiation alone treated)]*100

[1] = system: oral (buccal) mucosa cells (TR146); assay: Restoration of mitochondrial membrane potential (JC-1) against 5-FU induced damage; settings: for MMP: mitochondrial membrane potential, red/green JC-1 fluorescence ratio
Protocol: Oral buccal mucosal cells (TR146) were incubated overnight in 5% CO2 incubator at 37° C. for 24 h. […] After 24 h of treatment, cells were exposed to damage (5-FU 5 mM) for 1.25 h for chemotherapy induced inflammation and exposed to gamma radiation (3.5 kGy) using Cobalt 60 for radiation induced inflammation. After the exposure, the anti-apoptotic effect of SEQ ID NO 2 was determined by restoration of mitochondrial membrane depolarization by JC-1 staining and reduction in apoptotic cell populations (Annexin positive and subG0/G1 cells in cell cycle analysis).
After incubation, the supernatants were discarded and 100 μl of JC1-dye solution (prepared by diluting 1 mM DMSO stock into 10 μM in 1×PBS) was added to each well. The cells were then incubated with the dye in CO2 incubator at 37° C. for 15 min, after which the supernatant was removed, and the cells were washed twice with 1×PBS. 100 μl of 1×PBS was finally added to each well. Red fluorescence (excitation 550 nm, emission 600 nm) and green fluorescence (excitation 485 nm, emission 535 nm) were measured using Biotek Synergy HT plate reader. The mitochondrial membrane potential (Δψm) was calculated as the ratio of intensity of red fluorescence to intensity of green fluorescence.
The percentage increase/restoration in mitochondrial membrane potential (MMP) was calculated as: % Increase=[(R−X)/R]*100 • Where, X=Δψm corresponding to TI+5-FU treated cells or TI+radiation treated cells; R=Δψm corresponding to control cells (FU damaged or Radiation damaged alone)

MMP-3 = assay: Multiplex analysis, chemotherapy (5-FU), TR146
Protocol: as §1, §2, §3

IL-12/IL-23p40 = assay: Multiplex analysis, chemotherapy (5-FU), TR146
Protocol: as §1, §2, §3

[2] = system: oral (buccal) mucosa cells (TR146); assay: Sub(G0/G1) cell population (cell cycle) against 5-FU induced damage; settings: for % Decrease in Apoptotic cells (with respect to control): Sub G0/G1
Protocol: To determine the effect of test item on cell cycle, oral buccal mucosal cells (TR146) were incubated overnight in 5% CO2 incubator at 37° C. for 24 h. […] After 24 h of treatment, cells were exposed to chemotherapy (5-FU 10 mM) for 24 h or radiotherapy (Gamma radiation (3.5 kGy) using Cobalt 60) for 2 h.
After incubation, cells were harvested by trypsinization and processed for Cell cycle assay. Accordingly, cells were harvested into prelabeled centrifuge tubes and centrifuged at 450 g for 5 min at room temperature (RT, low brake). The supernatants were removed carefully and discarded. 1 ml of 1× phosphate buffer saline (PBS) was added to the pellet and resuspended gently to make homogenous suspension. Cells were centrifuged at 450 g for 5 min, RT (low brake). The supernatant was carefully removed leaving behind approx. 100 μl of PBS. Cells were resuspended gently yet thoroughly in residual PBS. Ice-cold 70% ethanol (100 μl) was added drop-wise into cells in each tube while vortexing at low speed (fixation step). Cells stored at 4° C. for 24 h were centrifuged at 450 g for 5 min, RT (low brake). The supernatant was carefully removed without touching the pellet and discarded. 1 ml of 1×PBS was added into pellet and resuspended gently. Cells were incubated for 1 minute at RT. Cells were centrifuged at 450 g for 5 min, RT (low brake). The supernatant was removed carefully without touching the pellet, leaving behind approx. 20-50 μl of PBS. 200 μl of cell cycle reagent was added into each tube. Cells were resuspended gently and mixed. Cells were incubated for 30 min at RT in the dark. The stained samples were transferred into 96-well plates and acquired on flow cytometer (Guava technologies). Percentage of cells in Sub (G0/G1) phase were determined based on the concept that cell cycle reagent contains PI stain, which stains DNA of cells in different phases of cell cycle; Sub (G0/G1), G1, S, G2 and M. Cells in Sub (G0/G1) phase correspond to apoptotic cells. Percent inhibition in apoptotic cells is determined by the formula:
=[(% Sub(G0/G1) cells in 5-FU/radiation alone)−(% Sub(G0/G1) cells in TI+5-FU/radiation)/% Sub(G0/G1) cells in 5-FU/radiation alone]*100

[3] = system: oral (buccal) mucosa cells (TR146)
Protocol: The protective effect of the recombinant lectin on survival of TR146 cells against 5-FU induced damage was determined using following calculations:
The viability of cells was determined as: % Cell viability=(100−% Cytotoxicity); • where, the percentage cytotoxicity corresponding to each treatment was calculated as: % Cytotoxicity=[(R−X)/R]*100, wherein X=Absorbance of cells treated with 5-FU or radiation damage/TI+5-FU, R=Absorbance of Control cells (Untreated) and Percentage protection was calculated as:
{(Absorbance of TI+5-FU or radiation)−(Absorbance of 5-FU or radiation alone)/(Absorbance of Untreated)−(Absorbance of 5-FU alone)}*100

## NCCCNCCSP(=O)(O)O [Amifostine, reference compound]
NF-kB; 1 μg/ml + 5-FU (10 mM)
  Percentage Inhibition NF-kB: 100%
NF-kB; 10 μg/ml + 5-FU (10 mM)
  Percentage Inhibition NF-kB: 48.2%
NF-kB; 50 μg/ml + 5-FU (10 mM)
  Percentage Inhibition NF-kB: 14.2%
[1]; 1 μg/ml + 5FU
  % Increase in MMP (with respect to control): 68.7%
  MMP: 14.3
[1]; 5 μg/ml + 5FU
  % Increase in MMP (with respect to control): 64.9%
  MMP: 14
[1]; 10 μg/ml + 5FU
  % Increase in MMP (with respect to control): 85.3%
  MMP: 15.7
[1]; 25 μg/ml + 5FU
  % Increase in MMP (with respect to control): 90%
  MMP: 16.1
[1]; 50 μg/ml + 5FU
  % Increase in MMP (with respect to control): 105.2%
  MMP: 17.4
MMP-3; 1 μg/ml + 5-FU (10 mM)
  Percentage Inhibition MMP-3: 22.6%
MMP-3; 10 μg/ml + 5-FU (10 mM)
  Percentage Inhibition MMP-3: 23.4%
MMP-3; 50 μg/ml + 5-FU (10 mM)
  Percentage Inhibition MMP-3: 26.8%
IL-12/IL-23p40; 1 μg/ml + 5-FU (10 mM)
  Percentage Inhibition IL-12/IL-23p40: 0%
IL-12/IL-23p40; 10 μg/ml + 5-FU (10 mM)
  Percentage Inhibition IL-12/IL-23p40: −2.1%
IL-12/IL-23p40; 50 μg/ml + 5-FU (10 mM)
  Percentage Inhibition IL-12/IL-23p40: 13.4%
[2]; 1 μg/ml + 5FU (10 mM)
  % Apoptotic cells (Sub G0/G1): 13%
  % Decrease in Apoptotic cells (with respect to control): 58%
[2]; 10 μg/ml + 5FU (10 mM)
  % Apoptotic cells (Sub G0/G1): 11.4%
  % Decrease in Apoptotic cells (with respect to control): 63.2%
[2]; 25 μg/ml + 5FU (10 mM)
  % Apoptotic cells (Sub G0/G1): 17%
  % Decrease in Apoptotic cells (with respect to control): 45%
[2]; 50 μg/ml + 5FU (10 mM)
  % Apoptotic cells (Sub G0/G1): 15.1%
  % Decrease in Apoptotic cells (with respect to control): 50.9%
[3]; 1 μg/ml + Radiation (3.5 kGy)
  % Protection: 7.7%
[3]; 5 μg/ml + Radiation (3.5 kGy)
  % Protection: 22.2%
[3]; 10 μg/ml + Radiation (3.5 kGy)
  % Protection: 43.1%
[3]; 25 μg/ml + Radiation (3.5 kGy)
  % Protection: 12%
